{
  "source": "patent US20230121797A1",
  "about": "“A COMBINATION OF FLAVONOIDS AND SPHINGOSINE 1 PHOSPHATE LYASE INHIBITORS FOR THE TREATMENT OF LUNG INFLAMMATION” (AC BIOSCIENCE SA, priority 2020, published 2023)",
  "key": {"circulating lymphocytes [1]": {"test_system": "circulating lymphocytes", "details": "mice, cited from earlier work"}, "circulating lymphocytes [2]": {"test_system": "circulating lymphocytes", "details": "human subjects, cited from earlier work"}, "PMN": {"test_system": "PMN", "test": "oxygen consumption of triggered PMN", "assay_type": "cell-based", "details": "triggered by PMA, FMLP and opsonized zymosan; data not shown"}, "Human neutrophils [3]": {"test_system": "Human neutrophils", "test": "cytochrome c reduction rate (superoxide anion production) by activated neutrophils", "assay_type": "cell-based", "details": "Resting neutrophils"}, "neutrophils": {"test_system": "neutrophils", "test": "activation of neutrophils stimulated by LPS or PMA", "assay_type": "cell-based", "text": "Flavonoids are the largest group of naturally occurring polyphenolic compounds which have shown diverse biological activities depending of their chemical structure including anti-viral activities against a variety of viruses and potent immune-modulating and inflammatory activities. Among flavonoids, Quercetin, and its bioavailable derivatives such as isoquercetin, offer good perspectives to develop new therapeutics to treat cancer, viral infection and pathogenic inflammation (reviewed in Li et al, 2016). Flavonoids have potent anti-inflammatory activities."}, "Human neutrophils [4]": {"test_system": "Human neutrophils", "test": "cytochrome c reduction rate (superoxide anion production) by activated neutrophils", "assay_type": "cell-based", "description": "Human neutrophils (2×10^6/mL) were incubated in HBSS with TNF-α at 37° C. for 25 minutes. Cells were stimulated with FMLP or PMA in the presence of cytochrome c (1.2 mg/mL final), and the optical density of the supernatants was determined by spectrophotometry (550 nm). For both PMA or FLMP as PMN activators, the IC50 for DHQ inhibition is around 8 μM.\nWhen activated by opsonized bacteria, zymozan, FMLP (Formyl-Methionyl-Leucyl-Phenylalanine) or PMA (phorbolmyristate acetate), neutrophils undergo an oxidative burst resulting in the production of superoxide anion and subsequent hydrogen peroxide. The oxidative burst is mainly mediated by the NADPH oxidase activation, enzyme responsible of the superoxide anion production. […] This effect may come from either a direct anion superoxide scavenging or from the inhibition of NADPH oxidase activation."}, "Human neutrophils [5]": {"test_system": "Human neutrophils", "test": "ROS production by activated neutrophils, luminol chemiluminescence", "assay_type": "cell-based", "details": "for inhibition of the ROS production: DHQ 1p M in the assay medium", "description": "ROS production is measured using a chemiluminescence standard procedure: briefly, One hundred microliters of human neutrophils (4×10^6/mL) were primed with TNF-α at 37° C. for 25 minutes. 100 μL luminol (1 μM final concentration) and HRP (62.5 U/mL final concentration) in HBSS were added, and 150-μL aliquots were transferred to a prewarmed 96-well luminometer plate. Light emission was recorded by a Berthold MicroLumat Plus luminometer (Berthold Technologies, Hartfordshire, United Kingdom) (data output is in relative light units per second).\nIn order to further investigate the effect of DHQ on the oxidative burst of neutrophils, the measurement of the ROS production by chemoluminescence has been used which detect both surperoxide anion and hydrogen peroxide. […] This inhibitory effect can be considered as very efficient regarding the fact that the addition of 1p M in the assay medium results in around 80% inhibition of the ROS production in both experiments. The inhibition is not due to a ROS scavenging (as measured by cyt. C reduction) but due to the inhibition of NADPH oxidase."}, "[6]": {"test_system": "LPS-stimulated whole blood", "details": "cited from earlier work"}},
  "note": "Where two headings read alike, the source gives them in different places.",
  "data": [
    {"smiles": "C/C(=N\\O)c1nc([C@@H](O)[C@H](O)[C@H](O)CO)c[nH]1", "note": "[Compound 2]", "values": [
      {"measurement": "lymphopenia", "setting": "circulating lymphocytes [1]; single oral doses lower than 30-100 mg/kg", "value": "minimal to non-statistically significant effect"},
      {"measurement": "lymphopenia", "setting": "circulating lymphocytes [1]; single oral doses of 30-100 mg/kg", "value": "40-60%"},
      {"measurement": "depletion of circulating lymphocytes", "setting": "circulating lymphocytes [1]; single oral doses, 18 h after dosing", "value": "up to 60%"},
      {"measurement": "tolerability", "setting": "circulating lymphocytes [2]; all dose groups", "value": "generally well tolerated"},
      {"measurement": "decrease in peripheral lymphocytes", "setting": "circulating lymphocytes [2]; single ascending dose, highest administered dose of 180 mg", "value": "~50", "unit": "%"}
    ]},
    {"smiles": "O=C1c2c(O)cc(O)cc2O[C@H](c2ccc(O)c(O)c2)[C@H]1O", "note": "[DHQ, Dihydroquercetin]", "values": [
      {"measurement": "oxygen consumption of PMN", "setting": "PMN", "value": "strongly inhibits"},
      {"measurement": "cytochrome c reduction (anion superoxide production)", "setting": "Human neutrophils [3]; DHQ 1 μM", "value": 0.000, "unit": "dDO/min"},
      {"measurement": "cytochrome c reduction (anion superoxide production)", "setting": "Human neutrophils [3]; DHQ 10 μM", "value": 0.036, "unit": "dDO/min"},
      {"measurement": "cytochrome c reduction (anion superoxide production)", "setting": "Human neutrophils [3]; DHQ 100 μM", "value": 0.086, "unit": "dDO/min"},
      {"measurement": "effect on the activation of neutrophils", "setting": "neutrophils", "value": "strong inhibitory effect"},
      {"measurement": "cytochrome c reduction (anion superoxide production)", "setting": "Human neutrophils [4]; +FMLP, DHQ 1 μM", "value": 0.144, "unit": "dDO/min"},
      {"measurement": "cytochrome c reduction (anion superoxide production)", "setting": "Human neutrophils [4]; +FMLP, DHQ 10 μM", "value": 0.105, "unit": "dDO/min"},
      {"measurement": "cytochrome c reduction (anion superoxide production)", "setting": "Human neutrophils [4]; +FMLP, DHQ 100 μM", "value": 0.040, "unit": "dDO/min"},
      {"measurement": "cytochrome c reduction (anion superoxide production)", "setting": "Human neutrophils [4]; +PMA, DHQ 1 μM", "value": 0.110, "unit": "dDO/min"},
      {"measurement": "cytochrome c reduction (anion superoxide production)", "setting": "Human neutrophils [4]; +PMA, DHQ 10 μM", "value": 0.070, "unit": "dDO/min"},
      {"measurement": "cytochrome c reduction (anion superoxide production)", "setting": "Human neutrophils [4]; +PMA, DHQ 100 μM", "value": 0.021, "unit": "dDO/min"},
      {"measurement": "IC50", "setting": "Human neutrophils [4]; Homo sapiens, Neutrophil, PMA as PMN activator, neutrophils incubated with TNF-α, read-out: IC50 for DHQ inhibition of cytochrome c reduction rate (superoxide anion production)", "value": "~8", "unit": "µM"},
      {"measurement": "T. half (rise)", "setting": "Human neutrophils [5]; FMLP 10−6 Ml, DHQ 1, 10 or 100 μM, concentration of samples 2-4 not given", "value": 1.55},
      {"measurement": "inhibition of the ROS production", "setting": "Human neutrophils [5]; neutrophils activated by FMLP", "value": "around 80%"},
      {"measurement": "inhibition of the ROS production", "setting": "Human neutrophils [5]; neutrophils activated by PMA", "value": "around 80%"}
    ]},
    {"smiles": "O=c1c(O)c(-c2ccc(O)c(O)c2)oc2cc(O)cc(O)c12", "note": "[quercetin]", "values": [
      {"measurement": "effect on the activation of neutrophils", "setting": "neutrophils", "value": "strong inhibitory effect"},
      {"measurement": "production of the major inflammatory cytokines TNFα, IL-6, IL-8 and IL-10", "setting": "[6]", "value": "decreases the production"}
    ]}
  ]
}
